Measured values from patent US7390819B2 (Altana Pharma AG, priority 2003, dated 2008).

target: T1, human inducible NO-synthase (Homo sapiens, UniProt P35228); assay: Measurement of inducible NO-synthase activity ([3H]arginine conversion); assay type: biochemical; settings: crude cytosolic fraction containing human inducible NO-synthase; 0.1 μM arginine; 45 to 60 min at 37° C.; read-out: Inhibition of INOS activity [measured as −logIC50 (mol/l)] (converted)
T1 construct: host or cells: crude cytosolic fraction
T1 sequence (P35228 whole entry): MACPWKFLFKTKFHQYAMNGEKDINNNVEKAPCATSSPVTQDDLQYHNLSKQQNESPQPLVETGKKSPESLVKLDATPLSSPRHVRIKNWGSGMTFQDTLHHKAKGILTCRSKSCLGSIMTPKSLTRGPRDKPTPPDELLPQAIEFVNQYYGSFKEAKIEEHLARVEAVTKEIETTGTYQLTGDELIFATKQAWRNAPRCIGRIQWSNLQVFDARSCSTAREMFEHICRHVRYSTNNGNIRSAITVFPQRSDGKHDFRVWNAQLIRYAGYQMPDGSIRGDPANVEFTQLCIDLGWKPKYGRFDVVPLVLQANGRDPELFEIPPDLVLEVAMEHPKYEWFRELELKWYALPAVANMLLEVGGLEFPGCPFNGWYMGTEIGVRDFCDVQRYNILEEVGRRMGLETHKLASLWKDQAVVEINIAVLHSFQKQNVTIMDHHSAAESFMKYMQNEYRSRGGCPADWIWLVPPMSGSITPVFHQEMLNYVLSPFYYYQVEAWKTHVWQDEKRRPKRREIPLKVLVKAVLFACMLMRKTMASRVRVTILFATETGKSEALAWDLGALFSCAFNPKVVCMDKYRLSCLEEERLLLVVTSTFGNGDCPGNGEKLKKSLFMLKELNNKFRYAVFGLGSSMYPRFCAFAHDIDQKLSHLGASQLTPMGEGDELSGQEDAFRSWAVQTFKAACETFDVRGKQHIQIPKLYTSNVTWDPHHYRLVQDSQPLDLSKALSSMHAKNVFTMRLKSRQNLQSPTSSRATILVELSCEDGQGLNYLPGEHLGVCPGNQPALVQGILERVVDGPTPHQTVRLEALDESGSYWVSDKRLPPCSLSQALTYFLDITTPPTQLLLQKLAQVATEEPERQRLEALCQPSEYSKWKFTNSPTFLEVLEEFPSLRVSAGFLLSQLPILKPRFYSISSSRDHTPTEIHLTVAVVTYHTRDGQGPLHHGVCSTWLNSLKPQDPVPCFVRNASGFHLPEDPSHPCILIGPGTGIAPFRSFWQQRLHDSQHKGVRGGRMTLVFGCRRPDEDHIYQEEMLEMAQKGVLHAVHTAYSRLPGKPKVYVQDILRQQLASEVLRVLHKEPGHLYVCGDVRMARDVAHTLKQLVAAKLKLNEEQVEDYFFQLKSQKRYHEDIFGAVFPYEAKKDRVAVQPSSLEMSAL
Description: Measurement of Inducible NO-synthase Activity
The assay is performed in 96-well microliter F-plates (Greiner, Frickenhausen, FRG) in a total volume of 100 μl in the presence of 100 nM calmodulin, 226 μM CaCl2, 477 μM MgCl2, 5 μM flavin-adenine-dinucleotide (FAD), 5 μM flavin mononucleotide (FMN), 0.1 mM NADPH, 7 mM glutathione, 10 μM BH4 and […] pH 7.2. Arginine concentrations are 0.1 μM for enzyme inhibition experiments. 150000 dpm of [^3H]arginine are added to the assay mixture. Enzyme reaction is started by the addition of 4 μg of a crude cytosolic fraction containing human inducible NO-synthase and the reaction mixture is incubated for 45 to 60 min at 37° C. Enzyme reaction is stopped by adding 10 μl of 2M MES-buffer pH 5.0. 50 μl of the incubation mixture are transferred into a MADP N65 filtration microtiter plate (Millipore, Eschborn, FRG) containing already 50 μl of AG-50W-X8 cation exchange resin (Biorad, München, FRG). The resin in the Na loaded form is pre-equilibrated in water and 70 μl (corresponding to 50 μl dry beads) are pipetted under heavy stirring with a 8 channel pipette into the filtration plate. After pipetting 50 μl of the enzyme reaction mixture onto the filtration plates, the plates are placed on a filtration manifold (Porvair, Shepperton, UK) and the flow through is collected in Pico scintillation plates (Packard, Meriden, Conn.). The resin in the filtration plates is washed with 75 μl of water (1×50 μl and 1×25 μl) which is also collected in the same plate as the sample. The total flow through of 125 μl is mixed with 175 μl of Microscint-40 scintillation cocktail (Packard) and the scintillation plate is sealed with TopSeal P-foil (Packard). Scintillation plates are counted in a scintillation counter.
For the measurement of inducible NO-synthase-inhibiting potencies of compounds increasing concentrations of inhibitors were included into the incubation mixture. IC50-values were calculated from the percent inhibition at given concentrations by nonlinear least square fitting.
The inhibitory values determined for the compounds according to the invention follow from the following table A, in which the compound numbers correspond to the example numbers.

Row | SMILES | IC50 [µM]
1 | COc1ccnc(CCc2nc3cc4cc(OC)ccc4nc3[nH]2)c1 [compound 4, 7-Methoxy-2-[2-(4-methoxypyridin-2-yl)ethyl]-3H-imidazo[4,5-b]quinoline] | 0.102
2 | COc1ccnc(CCc2nc3cc4cc(-c5ccc(CO)cc5)ccc4nc3[nH]2)c1 [compound 6] | 0.363
3 | COc1ccnc(CCc2nc3cc4cc(C)ccc4nc3[nH]2)c1 [compound 2, 2-[2-(4-Methoxypyridin-2-yl)ethyl]-7-methyl-3H-imidazo[4,5-b]quinoline] | 0.117
4 | COc1ccnc(CCc2nc3cc4cccc(C)c4nc3[nH]2)c1 [compound 3, 2-[2-(4-Methoxypyridin-2-yl)ethyl]-5-methyl-3H-imidazo[4,5-b]quinoline] | 0.135
5 | COc1ccnc(CCc2nc3cc4ccccc4nc3[nH]2)c1 [compound 1, 2-[2-(4-Methoxypyridin-2-yl)ethyl]-3H-imidazo[4,5-b]quinoline] | 0.0891
6 | COc1ccnc(CCc2nc3cc4cc(Br)ccc4nc3[nH]2)c1 [compound 5, 7-Bromo-2-[2-(4-methoxypyridin-2-yl)ethyl]-3H-imidazo[4,5-b]quinoline] | 0.0776
